The source of these data is a melting point compilation (Tetko et al.; mined from patent text by program, amines drawn as free bases though some values may be those of a salt).

The melting point is the temperature of the solid-liquid transition.

Regarding `CC(C)C(NC(=O)N(C)Cc1ccccn1)C(=O)NC(Cc1ccccc1)C(O)C(O)C(Cc1ccccc1)NC(=O)C(NC(=O)N(C)Cc1ccccn1)C(C)C` (configuration not stated), the melting point fell in the range of 159 to 162 °C. `CCNc1cc(-c2nc(=O)c3ccccc3s2)ccc1C(=O)OC` showed a melting point of 171 to 178 °C.

On to `Cc1nccn1-c1ccc(COc2cccc(C3(C(N)=O)CCCC3)c2)cc1`, for which the melting point fell in the range of 163 to 164 °C. Under `COc1ccnc(C(=O)c2[nH]c3cc(Cl)ccc3c2NC(C)=O)c1` stands 207 to 208 °C; under `CC(=O)OCc1c(-c2cc(Nc3cc(CN4CCC4)n(C)n3)c(=O)n(C)n2)cccc1-n1ncc2cc(C(C)(C)C)cc(F)c2c1=O`, 214 to 217 °C; under `Cc1nc(N2CCC(Cc3ccc(C(F)(F)F)cc3)C2=O)sc1C(=O)NCc1ccccc1` (configuration not stated), 174 to 175 °C. `Cn1cc(C#N)c(Nc2ccc(Cl)cc2[N+](=O)[O-])n1` came in with a melting point of 205 °C. The value for `COc1ccccc1Oc1c(Cl)nc(-c2cccs2)nc1Cl` was 118 to 120 °C. The value for `COC(=O)c1ccc2ccc(C(C)=O)cc2c1` was 103 to 105 °C. The value for `COc1ccc(CCCCOc2cc(-c3nc4cc(C(=O)O)ccc4[nH]3)ccc2OC)cc1` was 167 to 169 °C; that for `O=C1Nc2ccccc2N(C(=O)CN2CCOCC2)c2ncncc21` was 240 to 242 °C; that for `CC(=O)Oc1c(C)c(C)c2c(c1C)CCC(C)(O)O2` (configuration not stated) was 127 to 132 °C. `O=C(O)COc1cccc2c1CC(S(=O)(=O)Cc1ccccc1)c1sc(-c3ccc(F)cc3)nc1-2` (configuration not stated) gave a melting point of 210 to 211 °C.

In turn, `Cc1oc(-c2ccccc2)nc1COc1ccc(Cc2nc(-c3ccccc3)c(CCC(=O)O)o2)cc1` registered a melting point of 142 to 143 °C. `Nc1ccc(C(=O)N(CCN2CCC(C(=O)c3ccc(F)cc3)CC2)c2ccccc2)cc1` gave a melting point of 156 to 157 °C. Under `CS(=O)(=O)c1ccc(-c2cnc(N(Cc3ccc(C(F)(F)P(=O)(O)O)c(Cl)c3)c3ccc(Cl)c(Cl)c3)o2)cc1` stands 141 to 143 °C; under `O=Cc1ccc(OC(=O)c2ccccc2)c([N+](=O)[O-])c1`, 110 to 112 °C; under `CS(=O)c1ccc2ncn(C=CC(=O)O)c(=O)c2c1` (configuration not stated), 275 to 276 °C. Under `O=C1NC(=O)C(Cc2ccc(OCCOc3ccccc3)cc2)S1` (configuration not stated) stands 133 °C; under `COCCOc1ccc(Nc2nc(Nc3cc4c(cc3OC)CCN(CC(=O)N(C)C)CC4)ncc2Cl)c(OC)c1`, 51 to 59 °C. The value for `C=C[C@@H]1CCC(=O)N1C(=O)[C@H](Cc1ccccc1)O[Si](C)(C)C(C)(C)C` was 92 to 93.5 °C; that for `Cc1ccc(C(=O)/C=C/c2cc(C(C)(C)C)c3oc(=O)c(C(=O)O)cc3c2)cc1` was 185 to 186 °C; that for `Cc1ccn(-c2nc3ccccc3c(=O)[nH]2)n1` was 162 to 165 °C.

Compound `CNC(=O)c1ccc(C)c(-n2c(C)cc(OCc3ccccc3CNC(=O)Nc3cc(C(C)(C)C)nn3-c3cccc(OCCO)c3)c(Cl)c2=O)c1` displayed a melting point of 168 to 170 °C. Compound `CC(=O)OCC1OC(n2cc(C(I)=CI)c(=O)[nH]c2=O)C(OC(C)=O)C1OC(C)=O` (configuration not stated) displayed a melting point of 83 to 85 °C. The value for `CC(C(=O)O)c1ccc2cc(OCC(=O)O)ccc2c1` (configuration not stated) was 185 to 188 °C; that for `CCOC(=O)C(C)OCc1cc2cc(C(F)(F)F)ccc2n1S(=O)(=O)c1cc(OC)ccc1OC` (configuration not stated) was 130 to 132 °C. Under `CCC1CCSc2ccc(Nc3ncc(Cl)c(Nc4ccccc4C(=O)NC)n3)nc2C1` (configuration not stated) stands 228 to 231 °C. The compound `Cc1nc2ccccc2nc1OCc1nc(Cl)cc(N2CCCC2)n1` displayed a melting point of 136 to 140 °C. The value for `O=P1(Oc2ccccc2)CCCC(CI)O1` (configuration not stated) was 128 °C; that for `O=C(O)CCSC(c1ccccc1CCCCCCCCc1ccccc1)C(O)C(=O)O` (configuration not stated) was 91 to 92 °C; that for `CSC(=S)C1(c2ccccn2)SCCCS1` was 91 °C. The value for `CC1(C)[C@H](C=C(Cl)C(F)(F)F)[C@@H]1C(=O)NCc1cccc2c1CCCc1ccccc1-2` (relative stereo) was 65 to 70 °C. Under `CC(=O)C(=NNc1ccc(C)cc1)Sc1ccc(Cl)cc1` stands 133 to 136 °C; under `CC(=O)Nc1cnc(-c2ccccc2)nc1Cl`, 179 to 180 °C; under `CC1(C)C(c2ccc(S(C)(=O)=O)cc2)=C(c2ccccc2)C1(C)O` (configuration not stated), 114 to 115 °C. As to `O=C(CCC(=O)N1CCC[C@H]1C(=O)O)c1ccccc1`, the melting point was 95 to 97 °C.

`O=C(O)CC(=O)Nc1ccc(Br)cc1C(=O)O` returned a melting point of 203 to 206 °C. Consider `COc1ccc(CCc2oc3ccc(Br)cc3c2C(C)=O)cc1`, for which the melting point is 100 to 101 °C.

As to `O=c1[nH]c2cc(Cl)ccc2c(=O)n1S(=O)(=O)c1cc(Cl)ccc1Cl`, the melting point lay within 254 to 256 °C. The value for `O=C(O)COc1ccc(OC(F)(F)F)cc1C(=S)NCc1cccc([N+](=O)[O-])c1` was 158 to 161 °C. The value for `CC1(C)CC(N(C=O)CCc2ccccc2)CC(C)(C)N1` was 86 °C. Under `CCOC(=O)c1ccc(-c2[nH]nc3c2C(=O)c2c(NC(N)=O)cccc2-3)s1` stands above 280 °C; under `C[C@@H]1CCCN1CCc1ccc2cc(Br)ccc2n1`, 49 to 50 °C; under `O=C(OCCN1CCC(Nc2nc3ccccc3n2Cc2ccc(F)cc2)CC1)N1CCOCC1`, 145 °C.

Consider `CCCCNC(=O)C1CC(C)(C)NC(C)(C)C1=NO` (configuration not stated), for which the melting point lay within 58 to 60 °C.

Take `Cn1ccc(Nc2n[nH]c3c(OCCc4ccccn4)cc(-c4ncccc4Cl)cc23)n1`: the melting point lay within 89 to 91 °C.

Compound `CC(C)C1(C)Cc2cc(OCC(=O)O)c(Cl)c(Cl)c2C1=O` (configuration not stated) displayed a melting point of 148 °C. Under `COc1ccc(C(O)(Cc2ccncc2)c2ccccc2)cc1OC1CCCC1` (configuration not stated) stands 148 to 149 °C; under `COc1cccc([N+](=O)[O-])c1NC(=O)OCc1ccccc1`, 78 to 80 °C; under `CCCCNS(=O)(=O)c1cc(C(=O)O)cc(Cl)c1Cl`, 160 to 165 °C. The value for `FC(F)Sc1ccc(-c2ccccc2)cc1` was 56 to 57 °C; that for `CC(C)n1nc(-c2sc(NC(=O)Cc3ccccc3)nc2-c2ccccc2)ccc1=O` was 250 to 252 °C; that for `OCc1ccc(/C=C/c2ccc(OC(F)(F)F)cc2)cc1` was 161 to 163 °C. The value for `O=C1CC[C@@H](C(=O)N[C@@H](CSCc2ccccc2)C(=O)O)N1` was 181 to 183 °C; that for `COc1cccc(O[C@@H]2COc3ccc(OCc4ccccn4)cc3[C@@H]2O)c1` (relative stereo) was 105 to 107 °C. `CCOCN(c1ccccc1CN1CCC(c2ccccc2)OC1=O)S(=O)(=O)C(F)(F)F` (configuration not stated) registered a melting point of 116 °C. Under `COCCOc1c(S(C)(=O)=O)ccc(Cl)c1C` stands 83 to 85 °C; under `CCOC(=O)COc1cccc(-n2nc(-c3ccc(F)cc3)c3cccnc32)c1`, 130 to 131 °C.

The compound `Cc1ccc(Oc2cccc(NC(=O)c3ccn4c3CSC4c3cccnc3)c2)cc1` (configuration not stated) showed a melting point of 110 °C. The value for `CCCC(=O)Nc1n[nH]c2c(F)c(N3CCOCC3)c(Br)cc12` was 240 °C; that for `COC(=O)c1c2n(c(C)cc1=O)CCCC2` was 169 to 172 °C. The value for `CCOC(=O)c1csc(-c2ccc3nc(CC(C)C)c(CN)c(-c4ccc(C)cc4)c3c2)n1` was 150 to 152 °C; that for `CCOC(=O)CCCCCCOc1ccc(OCc2ccccc2)cc1` was 57 to 61 °C. Under `N#CC(c1ccc([N+](=O)[O-])cc1)c1ccccn1` (racemic) stands 97 to 99 °C. On to `CC1(C)CCC[C@H](N2C(=O)c3ccccc3C2=O)C(=O)N1`, for which the melting point was 193 to 194 °C.

For the compound `CCCn1c(-c2ccc(I)cc2)nc2cc(C#N)c(C#N)cc21`, the melting point was 208 to 209 °C. Under `Cc1c(-c2ccc(O)cc2)n(Cc2ccc(OCCN3CCC(O)CC3)cc2)c2ccc(O)cc12` stands 80 to 90 °C; under `COC(=O)CCCOc1ccc2nc3[nH]c(=O)[nH]c3cc2c1`, 299 to 301 °C. Take `CN1CC=C(c2c[nH]c3ccc(N)cc23)CC1`: the melting point was 200 to 203 °C.

For `COC(=O)C(C(=O)OC)C(Cc1cc(Cl)ccc1N)c1ccc(OC)cc1` (configuration not stated), the melting point lay in the range of 114 to 116 °C. As to `Cc1ccc2nc(-c3ccccc3C#N)n(C)c(=O)c2c1`, the melting point lay in the range of 157 to 158 °C. Under `COc1cccc2c1CCC1C(=O)N(C(C)c3ccccc3)C(=O)C21` (configuration not stated) stands 101 to 103 °C. The value for `S=C(Cc1cccnc1)N1CCC(=C2c3ccc(Cl)cc3CCc3cccnc32)CC1` was 92 to 93 °C; that for `CCCC1CCC(c2cc3c4c(c(F)c(F)c3o2)OCCC4)CC1` (configuration not stated) was 89 °C. Under `CCOC(=O)c1coc2c(OC)ccc(C(=O)Cc3c(Cl)cncc3Cl)c12` stands 142 to 143 °C.

In turn, `CCCCCCCCCCCCCCCCOC(=O)CCCCCCCCCCCCCCC` returned a melting point of 75 °C.

The compound `CCCCCCC(c1nccn1C)n1cnc2cc(-c3ccccc3-c3nn[nH]n3)ccc21` (configuration not stated) registered a melting point of 88 to 93 °C. The value for `COc1cc(O)ccc1OCc1ccccc1` was 84 °C; that for `CC(C)NCC(O)COc1cccc2nsnc12` (configuration not stated) was 100 to 102 °C; that for `COC(=O)C(C)Oc1cccc(C=O)c1` (configuration not stated) was 50.7 °C.

As for `CC(C)(C)c1ccc2c(C#N)ccc(C#N)c2c1`, the melting point lay in the range of 58 to 59 °C. The value for `O=S1NC(Cc2csc3ccccc23)=NO1` (configuration not stated) was 134 to 136 °C. For the compound `CCN1c2ncccc2C(SC)=Nc2c(C)cc(C)nc21`, the melting point lay within 130 to 132 °C.

Turning to `C#CCOc1cccc(CCCCCCCCCCCCCCC)c1`, the melting point was 26 to 27 °C. Under `O=C(Nc1ccc2[nH]cc(C3CCNCC3)c2c1)c1ccc(F)cc1` stands 229 to 230 °C; under `CCOC(=O)N1CCN(C(=O)C2CCC(=O)N2)CC1` (configuration not stated), 147 to 148 °C.
